Data on 4 compounds can be found in publication PMC9992855, “Functional polyamine metabolic enzymes and pathways encoded by the virosphere” (Proceedings of the National Academy of Sciences of the …, 2023).

One experiment deals with T1, KNV1 arginase homolog.
T1 construct: expressed in E. coli, purified
In words: released urea detection. The experiment is classed as biochemical, Klosneuvirus KNV1.

Experiment [1] deals with T2, UCP01 AdoMetDC homolog (pyruvoyl-dependent ODC).
T2 construct: gene speD; 117 aa; recombinant, purified; pyruvoyl enzyme
Description: decarboxylase activity assay. The experiment is classed as biochemical, uncultured Myoviridae sp. The settings on record: 26 °C. An excerpt: decarboxylase activity assay on UCP01 AdoMetDC homolog (pyruvoyl-dependent ODC)

The test system of experiment [2] is T3, Pelagiphage HTVC201P "AdoMetDC" (pyruvoyl-dependent ADC).
T3 construct: gene speD; 122 aa; recombinant, purified; class 1b AdoMetDC homolog, pyruvoyl enzyme
In words: decarboxylase activity assay. The experiment is classed as biochemical, Pelagibacter phage HTVC201P. The settings on record: 27 °C. From the text: decarboxylase activity assay on Pelagiphage HTVC201P "AdoMetDC" (pyruvoyl-dependent ADC)

The test system of another experiment is T4, Hyperionvirus sp. APAH.
T4 construct: 351 aa; expressed in E. coli, purified
Description: colorimetric acetate release. The experiment is classed as biochemical. The settings on record: 26 °C. From the text:
colorimetric acetate release on Hyperionvirus sp. APAH

In a further experiment the test system is T5, Klosneuvirus KNV1 APAH.
T5 construct: 345 aa; expressed in E. coli, purified
Description: colorimetric acetate release. The experiment is classed as biochemical. Conditions: 26 °C. From the text:
colorimetric acetate release on Klosneuvirus KNV1 APAH

In experiment [3] the test system is T6, UCP02 AdoMetDC homolog (pyruvoyl-dependent ODC).
T6 construct: gene speD
Conditions: 26 °C.
Description: decarboxylase activity assay on UCP02 AdoMetDC homolog (pyruvoyl-dependent ODC)

The next experiment has as its system Klosneuvirus KNV1 ODC. Conditions: 26 °C.
For experiment [4], the system named is T7, LBP AdoMetDC homolog (pyruvoyl-dependent ODC).
T7 construct: gene speD
The settings on record: 26 °C.
Description: decarboxylase activity assay on LBP AdoMetDC homolog (pyruvoyl-dependent ODC)

For experiment [5], the system named is T8, UCP03 AdoMetDC homolog (pyruvoyl-dependent ODC).
T8 construct: gene speD
The settings on record: 26 °C.
Description: decarboxylase activity assay on UCP03 AdoMetDC homolog (pyruvoyl-dependent ODC)

For experiment [6], the system named is T9, UCP04 AdoMetDC homolog (pyruvoyl-dependent ODC).
T9 construct: gene speD
Conditions: 26 °C.
Description: decarboxylase activity assay on UCP04 AdoMetDC homolog (pyruvoyl-dependent ODC)

Experiment [7] relates to Yellowstone Lake phycodnavirus 2 ODC. The settings on record: 26 °C.
Description: decarboxylase activity assay on Yellowstone Lake phycodnavirus 2 ODC

The Km is the concentration of substrate that gives half-maximal velocity.

Regarding `N=C(N)NCCC[C@H](N)C(=O)O` [L-arginine], the Km in the experiment on KNV1 arginase homolog was found to be 1300 ± 160 µM; in experiment [1], 2200 ± 290 µM; in experiment [2], 870 ± 110 µM.

Take `CC(=O)NCCCNCCCCN` [N^1-acetylspermidine]: the Km with Hyperionvirus sp. APAH was 1600 ± 160 µM; with Klosneuvirus KNV1 APAH, 240 ± 20 µM.

With `NCCC[C@H](N)C(=O)O` [L-ornithine], the Km in experiment [3] is 2400 ± 190 µM; in the experiment on Klosneuvirus KNV1 ODC it was 430 ± 20 µM; in experiment [4] it was 3800 ± 430 µM; in [1], 5500 ± 290 µM; in experiment [5], 620 ± 10 µM; in experiment [6], 440 ± 40 µM. Further, the Km in experiment [7] was 540 ± 200 µM.

On to `CC(=O)NCCCCNCCCN` [N^8-acetylspermidine], for which the Km was 5000 ± 730 µM in the experiment on Hyperionvirus sp. APAH and 450 ± 10 µM with Klosneuvirus KNV1 APAH.
